Test results from US12161608B2, “Methods of preventing and treating health conditions using cannabinoid anions” (NATURAL EXTRACTION SYSTEMS, LLC, priority 2019, dated 2024).

Legend:
[1] = system: individual with cramping and restless legs syndrome; test: Treatment of cramping and restless legs syndrome; format: in vivo, human; settings: glycerol tincture before sleep; self-report of one individual
Protocol: An individual who presented with cramping and restless legs syndrome was administered a glycerol tincture containing the cannabidiol anion before sleep.

[2] = system: individual with arthritis; test: Treatment of arthritis; format: in vivo, human; settings: glycerol tincture; self-report of one individual
Protocol: An individual who was unable to fill […] hydroxychloroquine prescription to treat the arthritis during the COVID-19 pandemic was administered a glycerol tincture containing the cannabidiol anion.

[3] = system: individual with knee pain associated with inflammation caused by trauma from a fall; test: Treatment of knee pain; format: in vivo, human; settings: glycerol tincture, ingested; self-report of one individual
Protocol: An individual who presented with knee pain associated with inflammation caused by trauma from a fall was administered a glycerol tincture containing the cannabidiol anion.

[4] = system: individual with cancer pain caused by throat cancer; test: Treatment of cancer pain; format: in vivo, human; settings: water containing the anion, ingested; self-report of one individual
Protocol: An individual who presented with cancer pain caused by throat cancer was administered water containing the cannabidiol anion (2-[6-isopropenyl-3-methylcyclohex-2-en-1-yl]-3-hydroxy-5-pentylphenolate).

individual with anxiety = test: Treatment of anxiety; format: in vivo, human
Protocol: An individual was administered a beverage containing the cannabidiol anion prior to driving to an airport to catch a flight that was scheduled to leave within thirty minutes of the arrival at the airport.
An individual who suffers from chronic anxiety was administered a glycerol tincture containing the cannabigerol anion.

[5] = system: individual with hip pain and lower back pain associated with spinal fusion surgery; test: Treatment of post laminectomy syndrome; format: in vivo, human; settings: glycerol tincture, ingested, self-report
Protocol: An individual with hip pain and lower back pain associated with spinal fusion surgery was administered a glycerol tincture containing the cannabidiol anion.

[6] = system: individual with chronic back pain associated with standing; test: Treatment of chronic back pain; format: in vivo, human; settings: glycerol tincture, ingested; self-report of one individual
Protocol: An individual who presented with chronic back pain associated with standing was administered a glycerol tincture containing the cannabidiol anion.

[7] = system: individual with hip pain associated with sitting; test: Treatment of chronic hip pain; format: in vivo, human; settings: glycerol tincture, ingested; self-report of one individual
Protocol: An individual who presented with hip pain associated with sitting was administered a glycerol tincture containing the cannabidiol anion.

[8] = system: dog that suffers from chronic seizures; test: Treatment of epilepsy; format: in vivo; settings: report of the dog's owners
Protocol: A dog that suffers from chronic seizures was administered a glycerol tincture containing the cannabidiol anion immediately after the onset of a seizure.

[9] = system: individual with chronic pain; test: Treatment of chronic pain; format: in vivo, human; settings: glycerol tincture; self-report of one individual
Protocol: An individual who presented with chronic pain was administered a glycerol tincture containing the cannabidiol anion.

[10] = system: individual with back pain associated with driving for prolonged periods of time; test: Treatment of acute back pain; format: in vivo, human; settings: glycerol tincture, ingested; self-report of one individual
Protocol: An individual who presented with back pain associated with driving for prolonged periods of time was administered a glycerol tincture containing the cannabidiol anion.

[11] = system: individual with social anxiety associated with presenting at business meetings; test: Treatment of social anxiety; format: in vivo, human; settings: beverage given before presenting at a business meeting; self-report
Protocol: An individual who presented with social anxiety associated with presenting at business meetings was administered a beverage containing the cannabidiol anion before presenting.

[12] = system: individual with Inflammatory Bowel Disease; test: Treatment of Inflammatory Bowel Disease; format: in vivo, human; settings: glycerol tincture; self-report of one individual
Protocol: An individual who presented with Inflammatory Bowel Disease was administered a glycerol tincture containing the cannabigerol anion.

[13] = system: individual with Crohn's disease; test: Treatment of Crohn's disease; format: in vivo, human; settings: glycerol tincture; self-report of one individual
Protocol: An individual who presented with Crohn's disease was administered a glycerol tincture containing the cannabigerol anion.

[14] = system: individual with chronic insomnia; test: Treatment of insomnia; format: in vivo, human; settings: glycerol tincture before sleep; self-report of one individual
Protocol: An individual who presented with chronic insomnia was administered a glycerol tincture containing the cannabigerol anion before sleep.

Compound	reported effect on sleep quality [1]	reported effectiveness at treating arthritis compared with hydroxychloroquine [2]	reported effect on mobility and knee pain [3]	reported effect on throat pain [4]	reported anxiety during a drive to an airport (individual with anxiety; beverage given prior to driving, self-report of one individual)	reported effect on hip pain and lower back pain [5]	reported effect on chronic back pain [6]	reported effect on hip pain [7]	effect on seizures ([8]; glycerol tincture immediately after the onset of a seizure)	effect on quality of life ([8]; glycerol tincture)	reported effect in chronic pain (standard of living) [9]	reported effect on back pain [10]	reported effect on social anxiety and performance [11]	reported effect on symptoms of Inflammatory Bowel Disease [12]	reported effect on chronic anxiety symptoms (individual with anxiety; glycerol tincture, individual who suffers from chronic anxiety, self-report)	reported effect on symptoms of Crohn's disease [13]	reported effect on onset and quality of sleep [14]
C=C(C)C1CCC(C)=CC1c1c(O)cc(CCCCC)cc1O (centres unmarked) [cannabidiol anion, 2-[6-isopropenyl-3-methylcyclohex-2-en-1-yl]-3-hydroxy-5-pentylphenolate]	significant improvement in sleep quality	more effective at treating their arthritis than hydroxychloroquine	improved mobility and alleviation of knee pain within minutes of ingestion	notable alleviation of throat pain within minutes of ingestion	notable absence of anxiety	notable alleviation of hip pain and lower back pain within minutes of ingestion	notable alleviation of the back pain within minutes of ingestion	notable alleviation of the hip pain within minutes of ingestion	both instantaneously and consistently arrested multiple seizures in the dog	significantly improved the dog's quality of life	significant improvement in their standard of living	notable alleviation of the back pain within minutes of ingestion	reduced anxiety and improved performance during the business meeting				
CCCCCc1cc(O)c(CC=C(C)CCC=C(C)C)c(O)c1 [cannabigerol anion, 2-[3,7-dimethylocta-2,6-diene-1-yl]-3-hydroxy-5-pentylphenolate]														significant improvement in their symptoms of Inflammatory Bowel Disease	significant improvement in their anxiety symptoms	significant improvement in their symptoms of Crohn's disease	significant improvement in the onset and quality of their sleep
